Publication PMC6265740, “Biochemical and Anti-Triple Negative Metastatic Breast Tumor Cell Properties of Psammaplins” (Marine Drugs, 2018)
Entries after “also recorded” stand apart in the source; their conditions may differ.

Experiments:
VEGF protein = assay: ELISA of cellular and secreted VEGF proteins in T47D cells; assay type: cell-based, human; settings: normalized to cellular proteins
Excerpt: (§1) Around 100 genes have been identified as HIF-1 target genes that encode proteins involved in various aspects of cellular physiology. While most of these genes are regulated in a cell type-specific manner, some are induced upon HIF-1 activation in most cell types. Based on availability and potency, compound 4 (a stereoisomer of 2) was selected for follow-up studies. The effects of 4 on the expression of HIF-1 target genes cyclin dependent kinase inhibitor 1A (CDKN1A) and vascular endothelial growth factor A (VEGFA) were examined by quantitative real time RT-PCR (Figure 2). The HIF-1 activator 1,10-phen (10 μM) and the pan-HDAC inhibitor TSA (0.1 and 1 μM, respectively) were included as positive controls. In T47D cells, 4 and TSA each increased the levels of CDKN1A mRNA in a concentration-dependent manner (2.9-fold for 4 at 10 μM and 7.2-fold for TSA at 1 μM, Figure 2A). In contrast, neither 4 nor TSA exerted greater than 20% effect on the levels of VEGF mRNA (Figure 2B). The gene VEGF encodes vascular endothelial growth factor A (a potent angiogenic factor) and agents that inhibit VEGF are in clinical use for cancer. The expression of cellular and secreted VEGF proteins was examined in T47D cells by ELISA assay.
Figure 2 Effects of 4 and trichostatin A (TSA) on HIF-1 target gene expression. T47D cells were exposed to 4 and TSA at the specified concentrations for 16 h. The compound 1,10-phen (10 µM) was included as a positive control. The levels of cyclin dependent kinase inhibitor 1A (CDKN1A) (A) and vascular endothelial growth factor (VEGF) (B) mRNA following treatments were determined by quantitative real time RT-PCR. Relative levels of target gene mRNA normalized to an internal control (18S rRNA) are shown as average ± standard deviation (n = 3, one representative experiment). The levels of cellular (C) and secreted VEGF protein (D) were determined by ELISA and normalized to the amount of cellular proteins. Data shown are average + standard deviation (n = 3). An asterisk “*” indicates p < 0.05 when compared to the media control.
(§2) The effects of test samples on HIF-1 target gene expression were assessed in T47D cells. To determine the levels of CDKN1A and VEGF mRNA, quantitative real-time RT-PCR was performed as described. To determine the levels of cellular and secreted VEGF proteins, T47D cells were exposed to compounds as described, the levels of VEGF proteins in the conditioned medium and cell lysate samples determined by ELISA [21], the amount of proteins in the cell lysate samples quantified using a micro BCA assay kit (Thermo Fisher Scientific, Rockford, IL, USA), and the level of VEGF proteins normalized to that of cellular proteins.

VEGF mRNA = assay: Quantitative real time RT-PCR of VEGF mRNA in T47D cells; assay type: cell-based, human; settings: 16 h, concentrations tested
Excerpt: as §1, with “The gene VEGF encodes vascular endothelial growth factor A (a potent angiogenic factor) and agents that inhibit VEGF are in clinical use for cancer. The expression of cellular and secreted VEGF proteins was examined in T47D cells by ELISA assay.” left out
(§3) Figure 2 Effects of 4 and trichostatin A (TSA) on HIF-1 target gene expression. […] The levels of cyclin dependent kinase inhibitor 1A (CDKN1A) (A) and vascular endothelial growth factor (VEGF) (B) mRNA following treatments were determined by quantitative real time RT-PCR. […] The levels of cellular (C) and secreted VEGF protein (D) were determined by ELISA and normalized to the amount of cellular proteins. […]
as §2

BoM spheroids = assay: Cultrex 3D spheroid cell invasion assay; assay type: cell-based, human; settings: for size of the spheroids: 96 h, in comparison to the HDAC inhibitors
Method: In order to form metastatic lesions, metastasis-initiating tumor cells must invade and intravasate into the lymphatic vasculature and/or blood vessels. Psammaplins were evaluated in a Cultrex® 3-D cell invasion assay that monitors the invasion and migration of tumor cells grown as spheroids, which closely model in vivo pathophysiological conditions.
Figure 5 Inhibition of bone metastatic BoM cell invasion. Tumor cell spheroids formed in a special spheroid formation extracellular matrix (ECM) were embedded in an invasion matrix containing 10% fetal bovine serum (FBS) in the presence and absence of compounds at the specified concentrations. Four days later (T96), cell invasion was recorded microscopically (the bar at the bottom right represents 100 µm).
The 3D spheroid cell invasion assay was performed using a commercial kit, following the manufacturer’s instructions (Cultrex® 3D Spheroid Cell Invasion Assay, Trevigen, Gaithersburg, MD, USA). Briefly, exponentially grown MDA-MB-231, LM, BoM, and BrM cells were trypsinized, collected, and resuspended in serum-free DMEM/F12 media. For spheroid formation, 3000 cells were added in a volume of 50 µL serum-free DMEM/F12 media with 1× spheroid formation solution/well into a pre-cooled 96-well plate. The plate was centrifuged at 100× g for 5 min at 4 °C, incubated at 37 °C for 24 h, and the spheroids imaged using an Axiovert 40 CFL microscope (Zeiss, Oberkochen, Germany). The plate was placed on ice, the invasion mix added in a volume of 50 µL/well, centrifuged at 350× g for 5 min at 4 °C, and incubated at 37 °C for 1 h. Test compounds and controls were diluted to two times the final concentrations in DMEM/F12 media supplemented with FBS (10%) and antibiotics, and added in a volume of 100 µL/well. The incubation continued for another 4 days at 37 °C and the cells/spheroids imaged (T96).

HDAC = assay: MDA-MB-435 cell-based HDAC assay (HDAC-Glo); settings: MDA-MB-435 cells, 30 min incubation, n = 6 pooled from two experiments
Method: Test compounds were added at specified concentrations to exponentially grown cells plated in 96-well plates. After 30 min incubation, the HDAC activity was determined using a commercial kit (HDAC-Glo™, Promega, Madison, WI, USA) and normalized to that of the dimethyl sulfoxide (DMSO) solvent control.
Exponentially grown cells were seeded at the density of 5000 cells/well into 96-well plates (Corning, Corning, NY, USA) and incubated overnight. Compounds dissolved in DMSO were added to achieve the specified final concentrations (total volume: 100 μL, DMSO: 0.5%). The incubation continued for 30 min at 37 °C and the HDAC activity determined using a commercial luminescent assay (HDAC-Glo™, Promega, Madison, WI, USA).

CDKN1A mRNA = assay: Quantitative real time RT-PCR of CDKN1A mRNA in T47D cells; assay type: cell-based, human; settings: 10 μM, 16 h
Excerpt: Around 100 genes have been identified as HIF-1 target genes that encode proteins involved in various aspects of cellular physiology. While most of these genes are regulated in a cell type-specific manner, some are induced upon HIF-1 activation in most cell types. Based on availability and potency, compound 4 (a stereoisomer of 2) was selected for follow-up studies. The effects of 4 on the expression of HIF-1 target genes cyclin dependent kinase inhibitor 1A (CDKN1A) and vascular endothelial growth factor A (VEGFA) were examined by quantitative real time RT-PCR (Figure 2). The HIF-1 activator 1,10-phen (10 μM) and the pan-HDAC inhibitor TSA (0.1 and 1 μM, respectively) were included as positive controls. […]
as §3
The effects of test samples on HIF-1 target gene expression were assessed in T47D cells. To determine the levels of CDKN1A and VEGF mRNA, quantitative real-time RT-PCR was performed as described. […]

HIF-1 = assay: T47D cell-based reporter assay (pHRE-luc) for HIF-1 activity; design: species or system human; settings: for HIF-1 activation (highest level) / normalized ratio of pHRE-luc/pGL3-control: 3 μM; for normalized ratio of pHRE-luc/pGL3-control: T47D
Method: Cellular adaptation to hypoxia (low oxygen tension) is primarily mediated via the transcription factor hypoxia-inducible factor-1 (HIF-1), that regulates oxygen homeostasis by activating the expression of genes that increase oxygen availability and those that decrease oxygen consumption. […] In a T47D cell-based reporter assay, a lipid extract sample of the sponge Dendrilla lacunosa activated HIF-1 by 3.56-fold (NIH collection No. C025691, 10 μg mL^−1). Bioassay-guided fractionation of the extract sample (2.6 g) and chemical structure elucidation afforded five known compounds psammaplin E (1), (E,Z)-psammaplin A (2), (E,E)-psammaplin K (3), (E,E)-psammaplin A (4), and bisaprasin (5). To determine the effects of 1–5 on HIF-1 activity, concentration-response studies were performed in a T47D cell-based reporter assay (Figure 1B). An iron chelator (1,10-phenanthroline, 10 μM) was included as a positive control. Compounds 1–4 activated HIF-1 in a biphasic manner. […] Hypoxia (1% O2) and chemical hypoxia (iron chelators or transition metals) represent two common stimuli that activate HIF-1 [24, 25, 26]. Further studies were performed to determine the effects of 1–5 on HIF-1 activity in the presence of other stimuli (1,10-phenanthroline, Figure 1C; hypoxia, Figure 1D). While 1–4 acted synergistically with 1,10-phenanthroline and hypoxia to activate HIF-1, a biphasic pattern of activation similar to that in the absence of stimulus […] was observed. […] Previous studies reported that psammaplins inhibit histone deacetylase (HDAC) enzymes. To determine if HDAC inhibition non-specifically activates HIF-1, concentration-response studies were conducted in T47D cells transfected with the pGL3-control plasmid. […] One possible scenario is that these compounds incur significant amount of cellular stress at higher concentrations, leading to the inhibition of gene expression in general.
Figure 1 Concentration-dependent biphasic effects of 1–4 on HIF-1 activation. (A) Structures of psammaplins isolated from Dendrilla lacunosa. (B) Concentration-response results of 1–5 in T47D cells transfected with pHRE-luc for HIF-1 activity. Test compounds were added at the increasing concentrations of 0.1, 0.3, 1, 3, 10, and 30 µM, as specified. The positive control 1,10-phenanthroline (1,10-phen) was used at 10 µM. Data shown are average ± standard deviation (n = 3). (C) Similar to described in (B) except that the pHRE-luc transfected T47D cells were exposed to test compounds in the presence of 10 µM 1,10-phen, and the data were normalized to the positive control (1,10-phen). (D) Similar to described in (C) except that hypoxic exposure (1% O2: 5% CO2: 94% N2, 16 h) was applied in place of 1,10-phen. (E) As described in (B) except that T47D cells were transfected with the pGL3-control construct. An asterisk “*” indicates p < 0.05 when compared to the controls (“Media” for B, D, and E; and “1,10-phen” for C).
To monitor HIF-1 activity, T47D cells were transfected with the pHRE3-TK-Luc construct and the cell-based luciferase reporter assay was performed as described. Cells were exposed to test compounds in the absence and presence of 1,10-phenanthroline (10 μM) or hypoxic conditions (1% O2: 5% CO2: 94% N2) for 16 h. The cells were lysed and luciferase activity determined with a commercial kit (Promega, Madison, WI, USA). For the cell-based control reporter assay, T47D cells were transfected with the pGL3-control construct (Promega, Madison, WI, USA), exposed to test compounds for 16 h, and the luciferase reporter assay performed as described.

[1] = test system: T47D, MDA-MB-231, LM, BoM, BrM cells; assay: Clonogenic assay; assay type: cell-based, human; settings: 24 h exposure, 10 days; 1 µM paclitaxel and TSA, 10 µM 1–5
Method: The effects of psammaplins on the colony-forming ability of single cells were assessed in a clonogenic assay. Cells seeded at low density were exposed to test compounds at the specified concentrations for 24 h. The conditioned media were replaced with growth media and the colonies formed from surviving single cells in 10 days.
Figure 4 Effects of 1–5 and TSA (trichostatin A) on colony formation. Cells plated at low density were exposed to compounds (24 h) at specified concentrations (1 µM for paclitaxel and TSA, and 10 µM for 1–5). After a period of ten days, the cells were fixed and stained.
For the clonogenic assay, exponentially grown cells were seeded at the density of 1000 cells/well into 6-well plates (Cellstar®, Greiner Bio-One GmbH, Kremsmünster, Austria) and incubated at 37 °C for 4 h to allow the cells to adhere. Compound addition was similar as above. After 24 h, the compound-containing conditioned media were replaced with fresh medium containing FBS (10%) and antibiotics. The incubation continued for another 10 days with a change of fresh medium every 5 days, the cells were fixed with methanol and stained with crystal violet (1 mg/mL in 20% ethanol), and the images were acquired with a Kodak digital camera.

[2] = T47D pHRE-luc, 16 h, no stimulus, n = 3

Row | SMILES | IC50 (HDAC) [nM] | HIF-1 activation (highest level) (HIF-1; [2]) [fold] | normalized ratio of pHRE-luc/pGL3-control (HIF-1) [fold] | size of the spheroids (BoM spheroids) | further results
1 | O=C(NCCSSCCNC(=O)/C(Cc1ccc(O)c(Br)c1)=N/O)/C(Cc1ccc(O)c(Br)c1)=N/O [Compound 4, (E,E)-psammaplin A] | 37 | 11.01 ± 0.71 | 2.30 | – | VEGF expression, cellular protein (VEGF protein): None of the HDAC inhibitors examined (4 and TSA) increased VEGF protein levels; VEGF expression, secreted protein (VEGF protein): None of the HDAC inhibitors examined (4 and TSA) increased VEGF protein levels; effect on the levels of VEGF mRNA (VEGF mRNA): ≤ 20%; invasion of BoM spheroids into the extracellular matrix (BoM spheroids; 96 h (T96), 4 and TSA at 48 h proliferation IC50): inhibited the invasion of BoM spheroids; also recorded: inhibited this invasion; increase in CDKN1A mRNA level (CDKN1A mRNA): 2.9 fold
2 | O=C(NCCSSCCNC(=O)/C(Cc1cc(Br)c(O)c(-c2cc(C/C(=N\O)C(=O)NCCSSCCNC(=O)/C(Cc3ccc(O)c(Br)c3)=N/O)cc(Br)c2O)c1)=N/O)/C(Cc1ccc(O)c(Br)c1)=N/O [Compound 5, bisaprasin] | 948 | – | – | – | HIF-1 activation (HIF-1; T47D pHRE-luc, 30 μM, 16 h, no stimulus, n = 3): 2.17 ± 0.13 fold; effect on HIF-1 activity in the presence of other stimuli (HIF-1; T47D pHRE-luc, with 1,10-phenanthroline (10 µM) or hypoxia (1% O2), 16 h): inhibited HIF-1 activation at higher concentrations
3 | C[C@@H]1C[C@@H]([C@H](O)CC2CC(=O)NC(=O)C2)C(=O)[C@@H](C)C1 [CHX, cycloheximide] | – | – | – | more pronounced decrease in the size of the spheroids | –
4 | O=C(NCCSSCCNC(=O)C(Cc1ccc(O)c(Br)c1)=NO)C(Cc1ccc(O)c(Br)c1)=NO [Compound 2, (E,Z)-psammaplin A] | 19 | 12.32 ± 0.70 | 2.38 | – | –
5 | CC(=O)O[C@H]1C(=O)[C@@]2(C)[C@H]([C@H](OC(=O)c3ccccc3)[C@]3(O)C[C@H](OC(=O)[C@H](O)[C@@H](NC(=O)c4ccccc4)c4ccccc4)C(C)=C1C3(C)C)[C@]1(OC(C)=O)CO[C@@H]1C[C@@H]2O [paclitaxel] | – | – | – | more pronounced decrease in the size of the spheroids | colony formation [1]: blocked colony formation in all cell lines
